According to article PMC8476055, “Synthesis and Biological Activity of Triterpene–Coumarin Conjugates” (Journal of Natural Products, 2021):

Tests used:
[1] = MTT assay, nontumor IEC-18 cells; assay type: cell-based, rat; conditions: rat, IEC-18 normal ileum cells; at the compound's IC50 concentration for HT29 cancer cells
Text: (§1) Only MA conjugates 7 and 10 were selected to compare the growth inhibitory effects in the three nontumor cell lines (HPF, IEC-18, and WRL68) versus the three cancer cell lines (B16–F10, HT29, and Hep G2). Therefore, the cytotoxic effects on B16–F10 murine melanoma cells were compared with those of HPF normal human epithelial lung fibroblasts, with similar tissue. Similarly, the cytotoxic effects of these conjugates on HT29 colon cancer cells and Hep G2 hepatoma cells were compared with those of nontumor cells of the same tissue, such as IEC-18 normal rat ileum cells and WRL68 normal human embryo liver cells, respectively.
(§2) […] ATTC HTB-38), Hep G2 human hepatocyte carcinoma cells (ECACC 85011430), nontumor human epithelial lung fibroblast cells HPF (ScienCell catalog (cat.) no. 3300), nontumor rat ileum cells IEC-18 (ECACC no. 88011801), and nontumor human embryo liver cells (ECACC 89121403) were cultured in DMEM medium supplemented with 2 mM glutamine, 10% heat-inactivated fetal bovine serum (FCS), 10.000 units/mL penicillin, and […]. These cells were incubated at 37 °C in an atmosphere of 5% CO2 and 95% humidity. The culture media were changed every 48 h, and the confluent cultures were separated with a trypsin solution (0.25% EDTA). Subconfluent monolayer cells were used in all experiments. All cell lines used were provided by the cell bank of the University of Granada (Spain).
(§3) The effect of the synthesized compounds on the viability of tumor cells was assessed using an MTT assay, based on the ability of living cells to cleave the tetrazolium ring, thus producing formazan, which absorbs at 570 nm. The MA conjugates (1–12) were assayed against the selected cancer cell lines. For an evaluation of the cytotoxic effects of these compounds, the cells were seeded in 96-well plates at an initial density of 5 × 10^3 B16–F10 cells, 6 × 10^3 HT29 cells, 15 × 10^3 Hep G2 cells, 8 × 10^3 HPF cells, 15 × 10^3 IEC-18 cells, and 11 × 10^3 WRL68 cells, per well. After incubation for 24 h, the cells were treated with the synthesized compounds in triplicate, at different concentrations (0–200 μg/mL), and incubated for 72 h. Thereafter, 100 μL of MTT solution (0.5 mg/mL) were added to each well. After 2 h of incubation, the cells were washed twice with phosphate buffered saline (PBS), and the formazan was resuspended in 100 μL of DMSO. Relative cell viability, with respect to untreated control cells, was measured by absorbance at 550 nm on an ELISA plate reader (Tecan Sunrise MR20-301, TECAN, Austria). […] These experiments were measured and compared to the control after 72 h of treatment.

[2] = system: IEC-18 normal rat ileum cells; assay: MTT assay, nontumor IEC-18 cells; assay type: cell-based; conditions: Rattus norvegicus, IEC-18; MTT, untreated control = 100% viability; read-out: IC50, growth inhibition of IEC-18 non-tumor cells
Text: as §1, §2, §3

[3] = system: HPF normal human epithelial lung fibroblasts; assay: MTT assay, nontumor HPF cells; assay type: cell-based; conditions: Homo sapiens, Fibroblast; MTT, untreated control = 100% viability; read-out: IC50, growth inhibition of HPF non-tumor cells
Text: as §1, §2, §3

[4] = MTT assay, nontumor WRL68 cells; assay type: cell-based, human; conditions: human, WRL68 normal embryo liver cells; at the compound's IC50 concentration for Hep G2 cancer cells
Text: as §1, §2, §3

[5] = system: WRL68 normal human embryo liver cells; assay: MTT assay, nontumor WRL68 cells; assay type: cell-based; conditions: Homo sapiens, WRL68; MTT, untreated control = 100% viability; read-out: IC50, growth inhibition of WRL68 non-tumor cells
Text: as §1, §2, §3

Row | Compound | viability at 72 h [1] [%] | IC50 [2] [µM] | IC50 [3] [µM] | viability at 72 h [4] [%] | IC50 [5] [µM]
1 | CC1(C)CC[C@]2(C(=O)NCCCNC(=O)/C=C/c3ccc(O)cc3)CC[C@]3(C)C(=CC[C@@H]4[C@@]5(C)C[C@@H](O)[C@H](O)C(C)(C)[C@@H]5CC[C@]43C)[C@@H]2C1 [Compound 7, 2α,3β-Dihydroxy-N-(3′-((E)-3″-(4‴-hydroxyphenyl)acrylamido)propyl)olean-12-en-28-amide] | 88 ± 0.6 | 19.6 ± 0.3 | 38.8 ± 1.3 | 61.4 ± 1.3 | 16.3 ± 0.9
2 | CC1(C)CC[C@]2(C(=O)O)CC[C@]3(C)C(=CC[C@@H]4[C@@]5(C)C[C@@H](OC(=O)c6cc7ccccc7oc6=O)[C@H](OC(=O)c6cc7ccccc7oc6=O)C(C)(C)[C@@H]5CC[C@]43C)[C@@H]2C1 [Compound 10] | 89.3 ± 2.2 | 7.4 ± 0.7 | 24.5 ± 1.9 | 87.4 ± 1.7 | 6.2
